Assay results published in publication PMC8395040 (International Journal of Molecular Sciences, 2021).

Tests used:
[1] = system: HCT116; experiment: MTT cytotoxicity assay, HCT116; type: cell-based; settings: Homo sapiens, HCT-116, 72 h, MTT; for cytotoxicity at 50 µM: read-out: % Cytotoxicity (50 µM) HCT116; for IC50: 0.05–50 µM
Experimental: (§1) Cytotoxicity assays were performed by using the MTT reduction method as described previously. Briefly, cancer cell lines were plated in flat-bottom 96-well plates at a cell concentration of 5 × 10^3 cells/well for the fastest growing lines, such as HEK293 and HT29 cells and 1 × 10^4 cells/well for more slowly growing lines, such as HCT116, H1975, BxPC-3, AsPC-1, B16-F10 and DAOY. Then, cells were incubated with the synthesised compounds at different concentrations (from 0.05 to 50 µM) in 200 µL with 10% FBS in RPMI 1640 or DMEM F12 culture medium at 37 °C for 72 h. Later, 10 µL of MTT were added at a final concentration of 0.5 mg/mL, incubated at 37 °C for 4 h, and then solubilised with 10% sodium dodecyl sulphate (SDS) in 0.1 mM HCl and incubated overnight at 37 °C. Formazan formation was measured at 570 nm in a multiwell plate reader (Cytation 5, Biotek Instruments, Winooski, VT, USA). Three independent biological replicates were performed.

[2] = system: HT29; experiment: MTT cytotoxicity assay, HT29; type: cell-based; settings: Homo sapiens, HT-29, 72 h, MTT; for cytotoxicity at 50 µM: read-out: % Cytotoxicity (50 µM) HT29
Experimental: as §1

[3] = system: Daoy; experiment: MTT cytotoxicity assay, Daoy; type: cell-based, human; settings: Homo sapiens, Daoy; 50 µM, 72 h, MTT; read-out: % Cytotoxicity (50 µM) DAOY;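 also: viability read as formazan absorbance at 570 nm after MTT reduction, three independent biological replicates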
[4] = system: H1975; experiment: MTT cytotoxicity assay, H1975; type: cell-based; settings: Homo sapiens, NCI-H1975, 72 h, MTT; for cytotoxicity at 50 µM: read-out: % Cytotoxicity (50 µM) H1975
Experimental: as §1

[5] = MTT cytotoxicity assay, HEK293 control cells; type: cell-based, human; settings: human, HEK293 cells; 50 µM, 72 h, MTT;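 also: Read-out is formazan absorbance at 570 nm from MTT reduction in 96-well plates, with three independent biological replicates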
[6] = system: HEK293; experiment: MTT cytotoxicity assay, HEK293 control cells; type: cell-based, human; settings: Homo sapiens, HEK293; MTT, 72 h, non-cancer cell line;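 also: Read-out is formazan absorbance at 570 nm from MTT reduction in 96-well plates, with three independent biological replicates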
[7] = system: AsPC-1; experiment: MTT cytotoxicity assay, AsPC-1; type: cell-based; settings: Homo sapiens, ASPC1, 72 h, 0.05–50 µM
Experimental: as §1

[8] = system: BxPC-3; experiment: MTT cytotoxicity assay, BxPC-3; type: cell-based; settings: Homo sapiens, 72 h, 0.05–50 µM
Experimental: as §1

melting point [°C] | SMILES | cytotoxicity at 50 µM [1] [%] | cytotoxicity at 50 µM [2] [%] | cytotoxicity at 50 µM [3] [%] | cytotoxicity at 50 µM [4] [%] | cytotoxicity at 72 h, 50 µM [5] [%] | IC50 [1] [µM] | IC50 ([2]; 0.05–50 µM) [µM] | IC50 [6] [µM] | IC50 ([4]; 0.05–50 µM) [µM] | IC50 [7] [µM] | IC50 [8] [µM]
99 to 101 | CCCCCCn1cnc2c(-c3ccc(OC(F)(F)F)cc3)nc(N3CCN(c4ccccc4)CC3)nc21 [Compound 4k, 9-Hexyl-2-(4-phenylpiperazin-1-yl)-6-(4-(trifluoromethoxy)phenyl)-9H-purine] | < 50 | < 50 | < 50 | < 50 | < 50 |  |  |  |  |  | 
126 to 128 | CCCCCCn1cnc2c(-c3ccc(OC(F)(F)F)cc3)nc(N3CCN(c4ccc(Cl)cc4)CC3)nc21 [Compound 4m, 2-(4-(4-Chlorophenyl)piperazin-1-yl)-9-hexyl-6-(4-(trifluoromethoxy)phenyl)-9H-purine] | < 50 | < 50 | < 50 | < 50 | < 50 |  |  |  |  |  | 
180 to 181 | CCCCCn1cnc2c(-c3ccc(OC(F)(F)F)cc3)nc(N3CCN(c4ccc([N+](=O)[O-])cc4)CC3)nc21 [Compound 4n, 9-Pentyl-2-(4-(4-nitrophenyl)piperazin-1-yl)-6-(4-(trifluoromethoxy)phenyl)-9H-purine] | < 50 | < 50 | < 50 | < 50 | < 50 |  |  |  |  |  | 
142 to 144 | CCCCCCn1cnc2c(-c3ccc(OC(F)(F)F)cc3)nc(N3CCN(c4ccc([N+](=O)[O-])cc4)CC3)nc21 [Compound 4o, 9-Hexyl-2-(4-(4-nitrophenyl)piperazin-1-yl)-6-(4-(trifluoromethoxy)phenyl)-9H-purine] | < 50 | < 50 | < 50 | < 50 | < 50 |  |  |  |  |  | 
144 to 145 | CCCCCCn1cnc2c(-c3ccc(OC(F)(F)F)cc3)nc(N3CCN(c4ccc(OC)cc4)CC3)nc21 [Compound 4q, 9-Hexyl-2-(4-(4-methoxyphenyl)piperazin-1-yl)-6-(4-(trifluoromethoxy)phenyl)-9H-purine] | < 50 | < 50 | < 50 | < 50 | < 50 |  |  |  |  |  | 
 | O=c1[nH]cc(F)c(=O)[nH]1 [Compound 5-FU, 5-fluorouracil, reference compound] | 62 ± 1.3 | 66 ± 4.9 |  |  | < 50 | 31 ± 0.3 | 0.51 ± 0.06 | 0.83 ± 0.07 |  |  | 
 | COc1cc([C@@H]2c3cc4c(cc3[C@@H](O[C@@H]3O[C@@H]5CO[C@@H](C)O[C@H]5[C@H](O)[C@H]3O)[C@H]3COC(=O)[C@H]23)OCO4)cc(OC)c1O [Etoposide, reference compound] | 90 ± 0.5 |  |  | 60 ± 1.1 | 65 ± 0.7 | 9.8 ± 0.5 |  | 8.4 ± 0.7 | 40 ± 0.2 |  | 
 | Nc1ccn([C@@H]2O[C@H](CO)[C@@H](O)C2(F)F)c(=O)n1 [Gemcitabine, reference compound] |  |  |  |  |  |  |  | 7.5 ± 0.6 |  | 0.3 ± 0.09 | 0.2 ± 0.07

SMILES | melting point [°C] | cytotoxicity at 50 µM [1] [%] | cytotoxicity at 50 µM [2] [%] | cytotoxicity at 50 µM [3] [%] | cytotoxicity at 50 µM [4] [%] | cytotoxicity at 72 h, 50 µM [5] [%] | IC50 [1] [µM] | IC50 ([2]; 0.05–50 µM) [µM] | IC50 [6] [µM] | IC50 ([4]; 0.05–50 µM) [µM] | IC50 [7] [µM] | IC50 [8] [µM]
CCCCCn1cnc2c(-c3ccc(OC(F)(F)F)cc3)nc(N3CCN(c4ccc(Cl)cc4)CC3)nc21 [Compound 4l, 9-Pentyl-2-(4-(4-clorophenyl)piperazin-1-yl)-6-(4-(trifluoromethoxy)phenyl)-9H-purine] | 147 to 149 | < 50 | < 50 | < 50 | < 50 | < 50 |  |  |  |  |  | 
CCCCCn1cnc2c(-c3ccc(OC(F)(F)F)cc3)nc(N3CCN(c4ccc(OC)cc4)CC3)nc21 [Compound 4p, 9-Pentyl-2-(4-(4-methoxyphenyl)piperazin-1-yl)-6-(4-(trifluoromethoxy)phenyl)-9H-purine] | 118 to 120 | < 50 | < 50 | < 50 | < 50 | < 50 |  |  |  |  |  | 
